US11459397B2, “Self-crosslinking antibodies” (Meditope Biosciences, Inc., priority 2016, dated 2022)

Assays:
[1] = system: HER2 expressing SK-OV-3-Luc ovarian xenograft; experiment: efficacy in SK-OV-3-Luc ovarian xenograft subcutaneous model; type: in vivo, mice; conditions: 20 mg/kg ip BIW, day 52 pi
Description: This study was performed to evaluate the efficacy of ADC constructs against HER2 expressing SK-OV-3-Luc ovarian xenograft subcutaneous model using both bioluminescent imaging and traditional tumor caliper measurement. Sixty-five female athymic nudes, 4 weeks old of age were obtained from Charles River. SK-OV-3-Luc cells were expanded using standard tissue culture technique. On the day of implantation, 2.5×10^6 cells in incomplete media with 30% matrigel were implanted to the right lower flank of each mouse. Animals were stratified into 7 groups of 8 mice for treatment based on the total flux (Perkin Elmer IVIS Lumina XRMS II) at day 10 pi. Animals were weighed twice weekly in conjunction with tumor measurements. Bioluminescent Imaging were performed once a week. Tumor mass were calculated using the following formula: Mass (mg)=Tumor volume (mm^3)=d^2×D/2, where d and D are the shortest and longest diameter in mm, respectively.

[2] = biological target: cetuximab Fab fragment; experiment: meditope binding to cetuximab Fab; conditions: meditope-binding site within the central cavity of the cetuximab Fab fragment; read-out: binding constant
Chain of cetuximab Fab fragment (as listed by the source, other chains not shown): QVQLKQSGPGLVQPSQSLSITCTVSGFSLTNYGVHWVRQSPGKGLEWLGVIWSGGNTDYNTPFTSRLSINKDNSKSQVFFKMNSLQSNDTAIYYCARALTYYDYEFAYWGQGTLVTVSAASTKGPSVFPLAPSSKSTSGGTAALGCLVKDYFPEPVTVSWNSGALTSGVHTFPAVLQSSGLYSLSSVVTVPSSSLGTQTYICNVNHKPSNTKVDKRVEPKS
From the text: In some examples, the meditope-binding site is a structural feature of the monoclonal antibody cetuximab. Thus, in some cases, the meditope-binding site contains residues corresponding to those within the meditope binding site of cetuximab.

[3] = modulation of self-crosslinking by free meditope, silver-stained native gel; type: physicochemical; conditions: 1 μM free meditope, 100 nM SnAP-body variants 1, 2, 3
[4] = system: CLL; conditions: Phase I, cited from earlier work
[5] = 46 heavily pretreated CLL patients, single agent

## CC(=O)O[C@H]1C(=O)[C@@]2(C)[C@H]([C@H](OC(=O)c3ccccc3)[C@]3(O)C[C@H](OC(=O)[C@H](O)[C@@H](NC(=O)c4ccccc4)c4ccccc4)C(C)=C1C3(C)C)[C@]1(OC(C)=O)CO[C@@H]1C[C@@H]2O [Paclitaxel]
[1]
  TGI: 2.80%

## C-QFDLSTRRLK-C [cQFD meditope]
[2]
  Kd: ~700 nM
[3]
  effect of free meditope on antibody self-crosslinking: can interfere with the self-crosslinking ability of self-crosslinking antibodies

## lumiliximab: primatized anti-CD23 mAb that contains cynomolgus macaque variable regions and human constant regions (IgG1-κ)
[4]; [5]
  objective Complete Responses (CRs) or Partial Responses (PRs): no objective Complete Responses (CRs) or Partial Responses (PRs) were observed
  patients with decreased peripheral blood lymphocyte counts: 91 % of patients
  patients with reduced enlarged lymph node size: 52 % of patients
[4]; CLL patients
  MTD (maximum tolerated dose): not reached
  adverse events (AEs): majority of adverse events (AEs) are limited to grade 1/2
  immunosuppression: not immunosuppressive
